According to the NIST ThermoML archive (doi:10.1021/je300252d):
Numbers after ± are expanded uncertainties.

Assay: mn = molality of the nth substance listed, in mol/kg
Settings: 100 kPa, Liquid, Direct current cell with electrodes

[Na+].c1ccc([B-](c2ccccc2)(c2ccccc2)c2ccccc2)cc1 [sodium tetraphenylboron] + CN(C)C=O
Settings | molar conductivity [S·m2/mol]
283.15 K, m1 = 0.0001121 | 0.004311 ± 7e-06
283.15 K, m1 = 0.0003006 | 0.004246 ± 5.7e-06
283.15 K, m1 = 0.0005305 | 0.004194 ± 4.2e-06
283.15 K, m1 = 0.0007538 | 0.0041545 ± 3.2e-06
283.15 K, m1 = 0.001184 | 0.0040963 ± 2.6e-06
283.15 K, m1 = 0.001959 | 0.0040172 ± 2.1e-06
283.15 K, m1 = 0.002964 | 0.0039424 ± 1.8e-06
283.15 K, m1 = 0.004014 | 0.0038787 ± 1.6e-06
283.15 K, m1 = 0.005905 | 0.0037902 ± 1.4e-06
283.15 K, m1 = 0.007908 | 0.0037146 ± 1.3e-06
283.15 K, m1 = 0.009953 | 0.0036529 ± 1.3e-06
283.15 K, m1 = 0.01189 | 0.003601 ± 1.2e-06
288.15 K, m1 = 8.405e-05 | 0.004653 ± 7.7e-06
288.15 K, m1 = 0.0003375 | 0.00456 ± 6.3e-06
288.15 K, m1 = 0.0005532 | 0.0045097 ± 4.3e-06
288.15 K, m1 = 0.0008262 | 0.0044598 ± 3.5e-06
288.15 K, m1 = 0.001174 | 0.0044103 ± 2.7e-06
288.15 K, m1 = 0.001935 | 0.0043259 ± 2.2e-06
288.15 K, m1 = 0.003089 | 0.004235 ± 1.9e-06
288.15 K, m1 = 0.003947 | 0.00418 ± 1.6e-06
288.15 K, m1 = 0.005926 | 0.0040813 ± 1.5e-06
288.15 K, m1 = 0.007888 | 0.004001 ± 1.4e-06
288.15 K, m1 = 0.009893 | 0.0039356 ± 1.3e-06
288.15 K, m1 = 0.01186 | 0.0038782 ± 1.3e-06
293.15 K, m1 = 8.854e-05 | 0.00499 ± 8.4e-06
293.15 K, m1 = 0.0003068 | 0.004902 ± 6.8e-06
293.15 K, m1 = 0.0005164 | 0.0048481 ± 4.8e-06
293.15 K, m1 = 0.0007512 | 0.0047996 ± 3.7e-06
293.15 K, m1 = 0.001224 | 0.004726 ± 2.9e-06
293.15 K, m1 = 0.001989 | 0.004637 ± 2.3e-06
293.15 K, m1 = 0.003077 | 0.0045457 ± 2e-06
293.15 K, m1 = 0.004001 | 0.004483 ± 1.7e-06
293.15 K, m1 = 0.005908 | 0.0043822 ± 1.6e-06
293.15 K, m1 = 0.007927 | 0.004295 ± 1.4e-06
293.15 K, m1 = 0.009859 | 0.004226 ± 1.4e-06
293.15 K, m1 = 0.0119 | 0.004162 ± 1.3e-06
298.15 K, m1 = 0.000116 | 0.005325 ± 8.8e-06
298.15 K, m1 = 0.0003157 | 0.005244 ± 6.7e-06
298.15 K, m1 = 0.0005504 | 0.0051809 ± 5.1e-06
298.15 K, m1 = 0.0007618 | 0.0051351 ± 3.9e-06
298.15 K, m1 = 0.001217 | 0.0050592 ± 3.1e-06
298.15 K, m1 = 0.002007 | 0.0049609 ± 2.5e-06
298.15 K, m1 = 0.002964 | 0.0048739 ± 2.1e-06
298.15 K, m1 = 0.003939 | 0.004802 ± 1.8e-06
298.15 K, m1 = 0.005917 | 0.0046899 ± 1.6e-06
298.15 K, m1 = 0.00789 | 0.004599 ± 1.5e-06
298.15 K, m1 = 0.009808 | 0.0045256 ± 1.4e-06
298.15 K, m1 = 0.01189 | 0.0044558 ± 1.4e-06
303.15 K, m1 = 0.0001023 | 0.005694 ± 9e-06
303.15 K, m1 = 0.0003262 | 0.005596 ± 7.3e-06
303.15 K, m1 = 0.0005565 | 0.00553 ± 5.4e-06
303.15 K, m1 = 0.0007645 | 0.0054821 ± 4.1e-06
303.15 K, m1 = 0.001229 | 0.0053997 ± 3.3e-06
303.15 K, m1 = 0.002017 | 0.0052952 ± 2.6e-06
303.15 K, m1 = 0.003018 | 0.0051984 ± 2.2e-06
303.15 K, m1 = 0.004001 | 0.0051217 ± 1.9e-06
303.15 K, m1 = 0.005892 | 0.0050075 ± 1.7e-06
303.15 K, m1 = 0.007841 | 0.0049118 ± 1.5e-06
303.15 K, m1 = 0.009874 | 0.0048292 ± 1.5e-06
303.15 K, m1 = 0.01188 | 0.0047579 ± 1.4e-06
308.15 K, m1 = 0.000135 | 0.006046 ± 1e-05
308.15 K, m1 = 0.0003264 | 0.005961 ± 7.7e-06
308.15 K, m1 = 0.0005229 | 0.0058999 ± 5.8e-06
308.15 K, m1 = 0.0007539 | 0.0058422 ± 4.4e-06
308.15 K, m1 = 0.00122 | 0.0057534 ± 3.5e-06
308.15 K, m1 = 0.002002 | 0.0056421 ± 2.8e-06
308.15 K, m1 = 0.002969 | 0.005541 ± 2.3e-06
308.15 K, m1 = 0.00395 | 0.0054581 ± 1.9e-06
308.15 K, m1 = 0.005926 | 0.00533 ± 1.8e-06
308.15 K, m1 = 0.007923 | 0.0052265 ± 1.6e-06
308.15 K, m1 = 0.009885 | 0.005143 ± 1.5e-06
308.15 K, m1 = 0.01187 | 0.0050687 ± 1.5e-06
313.15 K, m1 = 8.854e-05 | 0.00646 ± 1.2e-05
313.15 K, m1 = 0.0002531 | 0.006367 ± 9.5e-06
313.15 K, m1 = 0.0004344 | 0.006299 ± 6.5e-06
313.15 K, m1 = 0.00071 | 0.0062208 ± 4.8e-06
313.15 K, m1 = 0.001219 | 0.006116 ± 3.7e-06
313.15 K, m1 = 0.002012 | 0.0059959 ± 2.9e-06
313.15 K, m1 = 0.003006 | 0.0058852 ± 2.5e-06
313.15 K, m1 = 0.00399 | 0.0057965 ± 2e-06
313.15 K, m1 = 0.005907 | 0.0056636 ± 1.8e-06
313.15 K, m1 = 0.007913 | 0.0055535 ± 1.7e-06
313.15 K, m1 = 0.00989 | 0.0054653 ± 1.6e-06
313.15 K, m1 = 0.01185 | 0.0053887 ± 1.5e-06
318.15 K, m1 = 0.0001115 | 0.006838 ± 1.2e-05
318.15 K, m1 = 0.0002618 | 0.006751 ± 9.2e-06
318.15 K, m1 = 0.000487 | 0.006665 ± 6.8e-06
318.15 K, m1 = 0.0007457 | 0.0065904 ± 5e-06
318.15 K, m1 = 0.001234 | 0.0064856 ± 3.9e-06
318.15 K, m1 = 0.002038 | 0.0063572 ± 3.1e-06
318.15 K, m1 = 0.003 | 0.0062427 ± 2.6e-06
318.15 K, m1 = 0.003985 | 0.0061473 ± 2.2e-06
318.15 K, m1 = 0.005931 | 0.0060029 ± 1.9e-06
318.15 K, m1 = 0.007878 | 0.0058897 ± 1.7e-06
318.15 K, m1 = 0.009914 | 0.0057949 ± 1.6e-06
